Measurements as given in US6737383B1, “Herbicidal oxadiazolidines” (priority 1999, dated 2004).

What was measured:
bamyardgrass = assay: Test B flood test barnyardgrass; assay type: in vivo, Echinochloa crus-galli; settings: for Plant response rating, Barnyardgrass (0 to 10 scale, 0 is no effect, 10 is complete control): Rate 62 g/ha, Pre-emergence; for Plant response rating, Barnyardgrass (0 to 10 scale, 0 is no effect, 10 is complete control) / Barnyardgrass plant response rating (0 to 10 scale, 0 is no effect, 10 is complete control): flood test species, visual evaluation after twelve to sixteen days; for Barnyardgrass plant response rating (0 to 10 scale, 0 is no effect, 10 is complete control): Rate 125 g/ha, under heading Pre-emergence
Protocol: (§1) At the same time, these crop and weed species were also treated with postemergence applications of test chemicals formulated in the same manner. Plants ranged in height from 2 to 18 cm (1- to 4-leaf stage) for postemergence treatments. Plant species in the flood test consisted of rice (Oryza sativa), smallflower flatsedge (Cyperus difformis), duck salad (Heteranthera limosa) and bamyardgrass (Echinochloa crus-galli) grown to the 2-leaf stage for testing. Treated plants and controls were maintained in a greenhouse for twelve to sixteen days, after which all species were compared to controls and visually evaluated. Plant response ratings, summarized in Table B, are based on a scale of 0 to 10 where 0 is no effect and 10 is complete control. A dash (−) response means no test result.

duck salad = assay: Test B flood test duck salad; assay type: in vivo, Heteranthera limosa; settings: for Plant response rating, Ducksalad (0 to 10 scale, 0 is no effect, 10 is complete control): Rate 62 g/ha, Pre-emergence; for Plant response rating, Ducksalad (0 to 10 scale, 0 is no effect, 10 is complete control) / Ducksalad plant response rating (0 to 10 scale, 0 is no effect, 10 is complete control): flood test species, visual evaluation after twelve to sixteen days; for Ducksalad plant response rating (0 to 10 scale, 0 is no effect, 10 is complete control): Rate 125 g/ha, under heading Pre-emergence
Protocol: as §1

smallflower flatsedge = assay: Test B flood test smallflower flatsedge; assay type: in vivo, Cyperus difformis; settings: for Plant response rating, S. Flatsedge (0 to 10 scale, 0 is no effect, 10 is complete control): Rate 62 g/ha, Pre-emergence; for Plant response rating, S. Flatsedge (0 to 10 scale, 0 is no effect, 10 is complete control) / S. Flatsedge plant response rating (0 to 10 scale, 0 is no effect, 10 is complete control): flood test species, visual evaluation after twelve to sixteen days; for S. Flatsedge plant response rating (0 to 10 scale, 0 is no effect, 10 is complete control): Rate 125 g/ha, under heading Pre-emergence
Protocol: as §1

rice = assay: Test B flood test rice; assay type: in vivo, Oryza sativa
Protocol: as §1

[1] = Rate 250 g/ha, Pre-emergence (flood test species), scale 0 to 10, 0 is no effect, 10 is complete control
[2] = Rate 500 g/ha, Pre-emergence section of Table B, 0 to 10 scale (0 no effect, 10 complete control)

Row | Compound | Plant response rating, Barnyardgrass (0 to 10 scale, 0 is no effect, 10 is complete control) (bamyardgrass) | Barnyardgrass plant response rating (0 to 10 scale, 0 is no effect, 10 is complete control) (bamyardgrass) | Barnyardgrass plant response rating (bamyardgrass; [1]) | Barnyardgrass plant response rating (bamyardgrass; [2]) | Plant response rating, Ducksalad (0 to 10 scale, 0 is no effect, 10 is complete control) (duck salad) | Ducksalad plant response rating (0 to 10 scale, 0 is no effect, 10 is complete control) (duck salad) | Ducksalad plant response rating (duck salad; [1]) | Ducksalad plant response rating (duck salad; [2]) | Plant response rating, S. Flatsedge (0 to 10 scale, 0 is no effect, 10 is complete control) (smallflower flatsedge) | S. Flatsedge plant response rating (0 to 10 scale, 0 is no effect, 10 is complete control) (smallflower flatsedge) | S. Flatsedge plant response rating (smallflower flatsedge; [1]) | S. Flatsedge plant response rating (smallflower flatsedge; [2]) | Plant response rating, Rice (0 to 10 scale, 0 is no effect, 10 is complete control) (rice; Rate 62 g/ha, flood test species, Pre-emergence, visual evaluation after twelve to sixteen days) | Rice plant response rating (0 to 10 scale, 0 is no effect, 10 is complete control) (rice; Rate 125 g/ha, under heading Pre-emergence, flood test species, visual evaluation after twelve to sixteen days) | Rice plant response rating (rice; [1]) | Rice plant response rating (rice; [2])
1 | CCCCCCn1c(=O)on(C(=O)N(c2ccc(Cl)cc2)C(C)C)c1=O [Compound 529] | 0 | 0 | 0 | 2 | 0 | 0 | 0 | 0 | 0 | 0 | 0 | 0 |  |  |  | 
2 | CC(C)N(C(=O)n1oc(=O)n(CC2CC2)c1=O)c1ccc(Cl)cc1 [Compound 539] | 0 | 0 | 0 | 0 | 0 | 0 | 0 | 0 | 0 | 0 | 0 | 0 | 0 | 0 | 0 | 0
